This is an account of results in US11167162B2 (priority 2017, dated 2021).

For this assay, the system named is Fecal coliforms. It is filed as cell-based.

Where “and” joins values, the source holds several entries; their conditions need not be identical. Equal entries are not always repeated. A value given as a limit tells only on which side of the number the result lay.

Consider `CC(=O)OO` [A, peroxyacetic acid], for which the Category was >1000 and <1000.
